This passage reports IC50 results from patent US9359308B2, “Pyrazine kinase inhibitors” (Portola Pharmaceuticals, Inc., priority 2011, dated 2016).

The target in this assay is T1, full length active recombinant SYK enzyme (Homo sapiens, UniProt P43405).
T1 construct: full length active recombinant SYK enzyme (Millipore, Calif.); purchased Millipore
In words: Inhibition of Syk tyrosine phosphorylation activity (LANCE TR-FRET kinase assay). Type of assay: biochemical. Particulars: activity in the Syk assays, class symbols. In outline: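 IC50 was derived by non-linear regression of TR-FRET signal (Eu-W1024-PY100 donor, streptavidin-APC acceptor) read 1 h after EDTA quench. The kinase step ran 1 h at room temperature with 1 nM full-length SYK, 550 nM biotinylated DEEDYESP substrate and 100 μM ATP in Tris pH 7.5/MgCl2/DTT at 3% final DMSO.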
(In general: In TR-FRET formats the signal depends on donor and acceptor labels being close together.)
`Cc1cc(Nc2nc(N[C@H](CC(C)C)C(N)=O)cnc2C(N)=O)sn1` [Example 22, (R)-5-(1-amino-4-methyl-1-oxopentan-2-ylamino)-3-(3-methylisothiazol-5-ylamino)pyrazine-2-carboxamide]: the IC50 lay in the range of 1 to 10 nM. Then `CC[C@@H](Nc1cnc(C(N)=O)c(Nc2ccc3ncccc3c2)n1)C(N)=O` [Example 74, (R)-5-(1-amino-1-oxobutan-2-ylamino)-3-(quinolin-6-ylamino)pyrazine-2-carboxamide], with 1 to 10 nM.

Regarding `NC(=O)c1ncc(N[C@@H]2CCCC[C@@H]2N)nc1Nc1ccc(-c2ncco2)cc1` [Example 445, 5-(((1R,2S)-2-aminocyclohexyl)amino)-3-((4-(oxazol-2-yl)phenyl)amino)pyrazine-2-carboxamide], the IC50 was 1 to 10 nM.

As to `CC(C)[C@@H](Nc1cnc(C(N)=O)c(Nc2ccc(S(C)(=O)=O)cc2)n1)C(N)=O` [Example 160, (R)-5-(1-amino-3-methyl-1-oxobutan-2-ylamino)-3-(4-(methylsulfonyl)phenylamino)pyrazine-2-carboxamide], the IC50 is 10 to 100 nM. Then `Cc1ccc(Nc2nc(N[C@H](CC3CC3)C(N)=O)cnc2C(N)=O)cc1` [Example 174, (R)-5-(1-amino-3-cyclopropyl-1-oxopropan-2-ylamino)-3-(p-tolylamino)pyrazine-2-carboxamide], with 10 to 100 nM; and `NC(=O)c1ncc(N[C@@H]2CCOC[C@@H]2N)nc1Nc1cccc(-n2nccn2)c1` [Example 81, 3-(3-(2H-1,2,3-triazol-2-yl)phenylamino)-5-((3R,4R)-3-aminotetrahydro-2H-pyran-4-ylamino)pyrazine-2-carboxamide], with less than 1 nM. Then `CC[C@@H](Nc1cnc(C(N)=O)c(Nc2cncc(C)c2)n1)C(N)=O` [Example 177, (R)-5-(1-amino-1-oxobutan-2-ylamino)-3-(5-methylpyridin-3-ylamino)pyrazine-2-carboxamide], with 10 to 100 nM. On to `COc1cc(Nc2nc(N[C@H](CC(C)(C)C)C(N)=O)cnc2C(N)=O)ccn1` [Example 256, (R)-5-(1-amino-4,4-dimethyl-1-oxopentan-2-ylamino)-3-(2-methoxypyridin-4-ylamino)pyrazine-2-carboxamide], for which the IC50 lay within 1 to 10 nM. The result for `CC[C@@H](Nc1cnc(C(N)=O)c(Nc2snc3sccc23)n1)C(N)=O` [Example 271, (R)-5-(1-amino-1-oxobutan-2-ylamino)-3-(thieno[2,3-c]isothiazol-3-ylamino)pyrazine-2-carboxamide] reads less than 1 nM. Then `CC[C@@H](Nc1cnc(C(N)=O)c(Nc2ccc(S(=O)(=O)N(C)C)cc2)n1)C(N)=O` [Example 170, (R)-5-(1-amino-1-oxobutan-2-ylamino)-3-(4-(N,N-dimethylsulfamoyl)phenylamino)pyrazine-2-carboxamide], with 10 to 100 nM; and `CN(C)c1nc2ccc(Nc3nc(N[C@@H]4CCCC(F)(F)[C@@H]4N)cnc3C(N)=O)cc2o1` [Example 336, 5-((1R,2R)-2-amino-3,3-difluorocyclohexylamino)-3-(2-(dimethylamino)benzo[d]oxazol-6-ylamino)pyrazine-2-carboxamide], with 1 to 10 nM.

For the molecule `CN1C(=O)CCc2cc(Nc3nc(N[C@@H]4CCCC[C@@H]4N)cnc3C(N)=O)ccc21` [Example 90, 5-((1R,2S)-2-aminocyclohexylamino)-3-(1-methyl-2-oxo-1,2,3,4-tetrahydroquinolin-6-ylamino)pyrazine-2-carboxamide], the IC50 lay in the range of 1 to 10 nM.

`NC(=O)c1ncc(N[C@@H]2CCCC(F)(F)[C@@H]2N)nc1Nc1cc(-c2ccccc2)no1` [Example 387, 5-((1R,2R)-2-amino-3,3-difluorocyclohexylamino)-3-(3-phenylisoxazol-5-ylamino)pyrazine-2-carboxamide]: the IC50 was more than 1000 nM. For the molecule `CC[C@@H](Nc1cnc(C(N)=O)c(Nc2ccnc(C(F)(F)F)c2)n1)C(N)=O` [Example 349, (R)-5-(1-amino-1-oxobutan-2-ylamino)-3-(2-(trifluoromethyl)pyridin-4-ylamino)pyrazine-2-carboxamide], the half-maximal inhibitory concentration (IC50) lay within 10 to 100 nM. Then `CC[C@@H](Nc1cnc(C(N)=O)c(Nc2ccc(OCC(F)(F)F)nc2)n1)C(N)=O` [Example 316, (R)-5-(1-amino-1-oxobutan-2-ylamino)-3-(6-(2,2,2-trifluoroethoxy)pyridin-3-ylamino)pyrazine-2-carboxamide], with 10 to 100 nM; and `CN(C)C(=O)c1ccc(Nc2nc(N[C@@H]3CCCC[C@@H]3N)cnc2C(N)=O)cn1` [Example 278, 5-((1R,2S)-2-aminocyclohexylamino)-3-(6-(dimethylcarbamoyl)pyridin-3-ylamino)pyrazine-2-carboxamide], with 100 to 1000 nM. The result for `CC[C@@H](Nc1cnc(C(N)=O)c(Nc2cc(C(C)(C)C)ns2)n1)C(N)=O` [Example 228, (R)-5-(1-amino-1-oxobutan-2-ylamino)-3-(3-tert-butylisothiazol-5-ylamino)pyrazine-2-carboxamide] reads 10 to 100 nM; that for `CC[C@@H](Nc1cnc(C(N)=O)c(Nc2cc(COC)ns2)n1)C(N)=O` [Example 257, (R)-5-(1-amino-1-oxobutan-2-ylamino)-3-(3-(methoxymethyl)isothiazol-5-ylamino)pyrazine-2-carboxamide], 10 to 100 nM; that for `NC(=O)c1ncc(Nc2cccc(-n3nccn3)c2)nc1N[C@@H]1CCCC[C@@H]1N` [Example 96, 5-(3-(2H-1,2,3-triazol-2-yl)phenylamino)-3-((1R,2S)-2-aminocyclohexylamino)pyrazine-2-carboxamide], 10 to 100 nM.

Consider `COc1cncc(Nc2nc(N[C@H](CC(C)(C)C)C(N)=O)cnc2C(N)=O)c1` [Example 253, (R)-5-(1-amino-4,4-dimethyl-1-oxopentan-2-ylamino)-3-(5-methoxypyridin-3-ylamino)pyrazine-2-carboxamide], for which the IC50 was 1 to 10 nM. On to `NC(=O)c1ncc(N[C@@H]2CCCC[C@@H]2N)nc1Nc1ccc(F)nc1` [Example 304, 5-((1R,2S)-2-aminocyclohexylamino)-3-(6-fluoropyridin-3-ylamino)pyrazine-2-carboxamide], for which the IC50 lay in the range of 10 to 100 nM. The result for `CC[C@@H](Nc1cnc(C(N)=O)c(Nc2cnc3ncccc3c2)n1)C(N)=O` [Example 380, (R)-3-(1,8-naphthyridin-3-ylamino)-5-(1-amino-1-oxobutan-2-ylamino)pyrazine-2-carboxamide] reads 1 to 10 nM.

On to `CC[C@@H](Nc1cnc(C(N)=O)c(Nc2cnn(CC3CC3)c2)n1)C(N)=O` [Example 218, (R)-5-(1-amino-1-oxobutan-2-ylamino)-3-(1-(cyclopropylmethyl)-1H-pyrazol-4-ylamino)pyrazine-2-carboxamide], for which the half-maximal inhibitory concentration (IC50) is 100 to 1000 nM. Then `CCc1cc(Nc2nc(N[C@@H]3CCCC(F)(F)[C@@H]3N)cnc2C(N)=O)sn1` [Example 226, 5-((1R,2R)-2-amino-3,3-difluorocyclohexylamino)-3-(3-ethylisothiazol-5-ylamino)pyrazine-2-carboxamide], with 10 to 100 nM. Then `NC(=O)c1ncc(N[C@@H]2CCCC[C@@H]2N)nc1Nc1cccc2ncccc12` [Example 436, 5-(((1R,2S)-2-aminocyclohexyl)amino)-3-(quinolin-5-ylamino)pyrazine-2-carboxamide], with less than 1 nM.

Broadly, the IC50 is the concentration needed to halve the response being measured.
